Reference: US7192924B2, “Corticotropin releasing factor 2 receptor agonists” (priority 2002, dated 2007)
Peptide text beside a SMILES is read from it.

Experiments:
CRF2R = target: T1, CRF2R (Homo sapiens, UniProt Q13324); assay: CRF2R agonist activity (EC50, Emax), called comparative CRF binding; assay type: cell-based; settings: read-out: CRF2R EC50
T1 sequence (Q13324 1-411): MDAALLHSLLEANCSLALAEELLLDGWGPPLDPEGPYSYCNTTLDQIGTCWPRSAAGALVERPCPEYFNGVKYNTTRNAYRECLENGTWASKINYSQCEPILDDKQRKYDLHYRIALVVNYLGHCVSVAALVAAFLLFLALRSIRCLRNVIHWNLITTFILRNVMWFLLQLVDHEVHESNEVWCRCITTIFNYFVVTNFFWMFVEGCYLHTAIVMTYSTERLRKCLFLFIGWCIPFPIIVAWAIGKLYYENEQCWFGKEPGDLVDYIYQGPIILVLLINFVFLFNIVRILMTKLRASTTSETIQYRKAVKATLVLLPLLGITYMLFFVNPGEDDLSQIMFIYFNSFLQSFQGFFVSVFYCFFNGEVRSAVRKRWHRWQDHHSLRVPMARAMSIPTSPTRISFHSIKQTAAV
From the text: (§1) The pharmacological activity and selectivity of the peptides of present invention can be determined using published test procedures. See, e.g, U.S. patent application Ser. No. 09/799,978. Because CRF2R and CRF1R are homologous proteins, it is expected that a certain proportion of agonists for CRF2R will also function as agonists of CRF1R. As discussed above, activation of CRF1R induces activation of the HPA axis since increased corticosteroid production leads to skeletal muscle atrophy. In most cases in which an increase in muscle mass or function is desired, it is not desirable to activate the HPA axis.
(§2) Because it is desirable to discriminate binding between CRF2R, as compared with CRF1R, the assays described above may be conducted using a cell, or membrane from a cell, which expresses only CRF2R or the assays can be conducted with a recombinant source of CRF2R. Cells expressing both forms of CRFR may be modified using homologous recombination to inactivate or otherwise disable the CRF1R gene. Alternatively, if the source of CRFR contains more than one CRFR type, the background signal produced by the receptor which is not of interest must be subtracted from the signal obtained in the assay. […] Known antagonists of CRFRs include, but, are not limited to, antalarmin (CRF1R selective), antisauvagine-30 (CRF2R selective) and astressin (nonselective for CRF1R/CRF2R).
(§3) Cell-based assays include the steps of contacting cells which express CRF1R or CRF2R with a peptide of the present invention or control and measuring activation of the CRFR by measuring the expression or activity of components of the CRFR signal transduction pathways.
(§4) As described in the background section above, CRFRs appear to couple through several different pathways including Gαs, Gαq or Gαi, depending upon the cell type. It is thought that agonist activation of CRFR allows the receptor to signal via any of these pathways, provided that the necessary pathway components are present in the particular cell type. Thus, to assay a particular peptide of the present invention for CRFR activation, an assay can use any of the signal transduction pathways as the readout even if the relevant cell type for treatment, in vivo, couples CRFR to skeletal muscle atrophy via a different pathway. […] Assays for measuring activation of these signaling pathways are known in the art.
(§5) For example, after contact with a peptide of the present invention, lysates of the cells can be prepared and assayed for induction of cAMP. cAMP is induced in response to Gαs activation. Because Gαs is activated by receptors other than CRFR and because a test peptide may be exerting its effect through CRFRs or by another mechanism, two control comparisons are relevant for determining whether the peptide increases levels of cAMP via activation of a CRFR. One control compares the cAMP level of cells contacted with the peptide and the cAMP level of cells contacted with a control compound (i.e., the vehicle in which the peptide is dissolved).
(§6) In one example, cAMP induction is measured with the use of DNA constructs containing the cAMP responsive element linked to any of a variety of reporter genes can be introduced into cells expressing CRFRs. Such reporter genes include, but are not limited to, chloramphenicol acetyltransferase (CAT), luciferase, glucuronide synthetase, growth hormone, fluorescent proteins (e.g., Green Fluorescent Protein), or alkaline phosphatase. Following exposure of the cells to the peptide, the level of reporter gene expression can be quantitated to determine the peptide's ability to increase cAMP levels and thus determine the peptide's ability to activate the CRFR.
(§7) In addition to using cells expressing full length CRFRs, cells can be engineered which express CRFRs containing the ligand binding domain of the receptor coupled to, or physically modified to contain, reporter elements or to interact with signaling proteins.

CRF1R = target: T2, CRF1R (Homo sapiens, UniProt P34998); assay: CRF1R agonist activity (EC50, Emax), called comparative CRF binding; assay type: cell-based; settings: read-out: CRF1R EC50
T2 sequence (P34998 24-415): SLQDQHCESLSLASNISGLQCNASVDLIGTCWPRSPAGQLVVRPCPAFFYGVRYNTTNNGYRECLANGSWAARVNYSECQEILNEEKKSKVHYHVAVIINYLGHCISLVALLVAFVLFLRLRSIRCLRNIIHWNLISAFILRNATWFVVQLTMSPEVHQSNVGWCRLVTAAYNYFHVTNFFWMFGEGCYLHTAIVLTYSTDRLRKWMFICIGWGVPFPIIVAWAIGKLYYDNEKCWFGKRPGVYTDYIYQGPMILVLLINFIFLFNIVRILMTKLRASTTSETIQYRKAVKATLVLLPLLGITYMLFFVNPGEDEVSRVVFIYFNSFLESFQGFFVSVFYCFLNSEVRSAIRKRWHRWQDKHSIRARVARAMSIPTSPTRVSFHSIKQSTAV
From the text: as §1, §2, §3, §4, §5, §6, §7

Row | SMILES | EC50 (CRF2R) | EC50 (CRF1R)
1 | CC[C@H](C)[C@H](N)C(=O)N[C@H](C(=O)N[C@@H](CC(C)C)C(=O)N[C@@H](CO)C(=O)N[C@@H](CC(C)C)C(=O)N[C@@H](CC(=O)O)C(=O)N[C@H](C(=O)N1CCC[C@H]1C(=O)N[C@H](C(=O)NCC(=O)N[C@@H](CC(C)C)C(=O)N[C@@H](CC(C)C)C(=O)N[C@@H](CCC(N)=O)C(=O)N[C@H](C(=O)N[C@@H](CC(C)C)C(=O)N[C@@H](CC(C)C)C(=O)N[C@@H](CCC(=O)O)C(=O)N[C@@H](CCC(N)=O)C(=O)N[C@@H](C)C(=O)N[C@@H](CCCNC(=N)N)C(=O)N[C@@H](CCC(N)=O)C(=O)N[C@@H](CCCNC(=N)N)C(=O)N[C@@H](C)C(=O)N[C@@H](C)C(=O)N[C@@H](CCCNC(=N)N)C(=O)N[C@@H](CCC(=O)O)C(=O)N[C@@H](CCC(N)=O)C(=O)N[C@@H](C)C(=O)N[C@H](C(=O)N[C@H](C(=O)N[C@@H](CC(N)=O)C(=O)N[C@@H](C)C(=O)N[C@@H](CCCNC(=N)N)C(=O)N[C@H](C(=O)N[C@@H](CC(C)C)C(=O)N[C@@H](C)C(=O)N[C@@H](CCCNC(=N)N)C(=O)N[C@H](C(N)=O)C(C)C)[C@@H](C)CC)[C@@H](C)O)[C@@H](C)O)[C@@H](C)CC)[C@@H](C)CC)C(C)C)C(C)C [compound 114] (H-IVLSLDVPIGLLQILLEQARQRAAREQATTNARILARV-NH2; N-terminus assumed) | 3.42 nM | > 100 nM
2 | CC[C@H](C)[C@H](N)C(=O)N[C@H](C(=O)N[C@@H](CC(C)C)C(=O)N[C@@H](CO)C(=O)N[C@@H](CC(C)C)C(=O)N[C@@H](CC(=O)O)C(=O)N[C@H](C(=O)N1CCC[C@H]1C(=O)N[C@H](C(=O)NCC(=O)N[C@@H](CC(C)C)C(=O)N[C@@H](CC(C)C)C(=O)N[C@@H](CCC(N)=O)C(=O)N[C@H](C(=O)N[C@@H](CC(C)C)C(=O)N[C@@H](CC(C)C)C(=O)N[C@@H](CCC(=O)O)C(=O)N[C@@H](CCC(N)=O)C(=O)N[C@@H](CCC(=O)O)C(=O)N[C@@H](CCCCN)C(=O)N[C@@H](CCC(N)=O)C(=O)N[C@@H](CCCNC(=N)N)C(=O)N[C@@H](C)C(=O)N[C@@H](C)C(=O)N[C@@H](CCCNC(=N)N)C(=O)N[C@@H](CCC(=O)O)C(=O)N[C@@H](CCC(N)=O)C(=O)N[C@@H](C)C(=O)N[C@H](C(=O)N[C@H](C(=O)N[C@@H](CC(N)=O)C(=O)N[C@@H](C)C(=O)N[C@@H](CCCNC(=N)N)C(=O)N[C@H](C(=O)N[C@@H](CC(C)C)C(=O)N[C@@H](C)C(=O)N[C@@H](CCCNC(=N)N)C(=O)N[C@H](C(N)=O)C(C)C)[C@@H](C)CC)[C@@H](C)O)[C@@H](C)O)[C@@H](C)CC)[C@@H](C)CC)C(C)C)C(C)C [compound 115] (H-IVLSLDVPIGLLQILLEQEKQRAAREQATTNARILARV-NH2; N-terminus assumed) | 13.6 nM | > 100 nM
3 | CC[C@H](C)[C@H](N)C(=O)N[C@H](C(=O)N[C@@H](CC(C)C)C(=O)N[C@@H](CO)C(=O)N[C@@H](CC(C)C)C(=O)N[C@@H](CC(=O)O)C(=O)N[C@H](C(=O)N1CCC[C@H]1C(=O)N[C@H](C(=O)NCC(=O)N[C@@H](CC(C)C)C(=O)N[C@@H](CC(C)C)C(=O)N[C@@H](CCC(N)=O)C(=O)N[C@H](C(=O)N[C@@H](CC(C)C)C(=O)N[C@@H](CC(C)C)C(=O)N[C@@H](CCC(=O)O)C(=O)N[C@@H](CCC(N)=O)C(=O)N[C@@H](CCC(=O)O)C(=O)N[C@@H](CCCNC(=N)N)C(=O)N[C@@H](CCC(N)=O)C(=O)N[C@@H](CCC(=O)O)C(=O)N[C@@H](C)C(=O)N[C@@H](C)C(=O)N[C@@H](CCCNC(=N)N)C(=O)N[C@@H](CCC(=O)O)C(=O)N[C@@H](CCC(N)=O)C(=O)N[C@@H](C)C(=O)N[C@H](C(=O)N[C@H](C(=O)N[C@@H](CC(N)=O)C(=O)N[C@@H](C)C(=O)N[C@@H](CCCNC(=N)N)C(=O)N[C@H](C(=O)N[C@@H](CC(C)C)C(=O)N[C@@H](C)C(=O)N[C@@H](CCCNC(=N)N)C(=O)N[C@H](C(N)=O)C(C)C)[C@@H](C)CC)[C@@H](C)O)[C@@H](C)O)[C@@H](C)CC)[C@@H](C)CC)C(C)C)C(C)C [compound 118] (H-IVLSLDVPIGLLQILLEQERQEAAREQATTNARILARV-NH2; N-terminus assumed) | 14.6 nM | > 100 nM
4 | CC[C@H](C)[C@H](N)C(=O)N[C@H](C(=O)N[C@@H](CC(C)C)C(=O)N[C@@H](CO)C(=O)N[C@@H](CC(C)C)C(=O)N[C@@H](CC(=O)O)C(=O)N[C@H](C(=O)N1CCC[C@H]1C(=O)N[C@H](C(=O)NCC(=O)N[C@@H](CC(C)C)C(=O)N[C@@H](CC(C)C)C(=O)N[C@@H](CCC(N)=O)C(=O)N[C@H](C(=O)N[C@@H](CC(C)C)C(=O)N[C@@H](CC(C)C)C(=O)N[C@@H](CCC(=O)O)C(=O)N[C@@H](CCC(N)=O)C(=O)N[C@@H](CCC(=O)O)C(=O)N[C@@H](CCCCN)C(=O)N[C@@H](C)C(=O)N[C@@H](CCCNC(=N)N)C(=O)N[C@@H](C)C(=O)N[C@@H](C)C(=O)N[C@@H](CCCNC(=N)N)C(=O)N[C@@H](CCC(=O)O)C(=O)N[C@@H](CCC(N)=O)C(=O)N[C@@H](C)C(=O)N[C@H](C(=O)N[C@H](C(=O)N[C@@H](CC(N)=O)C(=O)N[C@@H](C)C(=O)N[C@@H](CCCNC(=N)N)C(=O)N[C@H](C(=O)N[C@@H](CC(C)C)C(=O)N[C@@H](C)C(=O)N[C@@H](CCCNC(=N)N)C(=O)N[C@H](C(N)=O)C(C)C)[C@@H](C)CC)[C@@H](C)O)[C@@H](C)O)[C@@H](C)CC)[C@@H](C)CC)C(C)C)C(C)C [compound 121] (H-IVLSLDVPIGLLQILLEQEKARAAREQATTNARILARV-NH2) | 5.67 nM | > 100 nM
5 | CC[C@H](C)[C@H](N)C(=O)N[C@H](C(=O)N[C@@H](CC(C)C)C(=O)N[C@@H](CO)C(=O)N[C@@H](CC(C)C)C(=O)N[C@@H](CC(=O)O)C(=O)N[C@H](C(=O)N1CCC[C@H]1C(=O)N[C@H](C(=O)NCC(=O)N[C@@H](CC(C)C)C(=O)N[C@@H](CC(C)C)C(=O)N[C@@H](CCC(N)=O)C(=O)N[C@H](C(=O)N[C@@H](CC(C)C)C(=O)N[C@@H](CC(C)C)C(=O)N[C@@H](CCC(=O)O)C(=O)N[C@@H](CCC(N)=O)C(=O)N[C@@H](C)C(=O)N[C@@H](CCCNC(=N)N)C(=O)N[C@@H](C)C(=O)N[C@@H](CCC(=O)O)C(=O)N[C@@H](C)C(=O)N[C@@H](C)C(=O)N[C@@H](CCCNC(=N)N)C(=O)N[C@@H](CCC(=O)O)C(=O)N[C@@H](CCC(N)=O)C(=O)N[C@@H](C)C(=O)N[C@H](C(=O)N[C@H](C(=O)N[C@@H](CC(N)=O)C(=O)N[C@@H](C)C(=O)N[C@@H](CCCNC(=N)N)C(=O)N[C@H](C(=O)N[C@@H](CC(C)C)C(=O)N[C@@H](C)C(=O)N[C@@H](CCCNC(=N)N)C(=O)N[C@H](C(N)=O)C(C)C)[C@@H](C)CC)[C@@H](C)O)[C@@H](C)O)[C@@H](C)CC)[C@@H](C)CC)C(C)C)C(C)C [compound 122] (H-IVLSLDVPIGLLQILLEQARAEAAREQATTNARILARV-NH2; N-terminus assumed) | 3.31 nM | ≥ 1000 nM
